Broadly, the ED50 is the midpoint of the dose-response relation. In general, inhibition refers to the drop in the measured response relative to a control, in per cent. Read a high inhibition as strong suppression.

Common to all, as to assay type: in vivo
Data set [1] can be described thus: Toxicity (weight loss and deaths) in mice after daily i.p. dosing for four days. To be noted: four consecutive days, observed for up to 12 days; for Morality (After treatment) / mortality at 288 h: deaths per 5 mice; for mortality at 288 h: mouse, in vivo, ip, read-out: Morality (After treatment) (converted). Here is the method: (§1) A group of 10 male albino CDI mice from Charles Riner, France, is given an i.p. injection of the test compound in aqueous solution daily for four consecutive days. Half of the animals are killed by decapitation 24 hours after the last dose of the test compound. The other half of the animals are observed for up to 12 days for toxicity (as indicated by weight loss and deaths). Control animals receive an injection of the vehicle only.

The subject of data set [2] is GABA concentration in the brain. In words: GABA content in brain of mice after daily i.p. dosing for four days. Particulars: four consecutive days, 24 hours after the last dose. Here is the method: as §1
(§2) The brains are removed from the dead mice and are divided into two portions by sagittal section. One half is used for the measurement of GABA-T activity while the other half is used for measuring GABA content. The GABA-T activity is measured using known methods as dessribed by M.Jung et al., J. Neurochem., 28, 717 (1977) and 29, 797 (1977). GABA content is measured by perchloric acid or trichloroacetic acid extracts using an amino acid analyzer equiped with a fluorescene detector.

Data set [3] relates to clonic seizures induced by an i.v. challenge of (+)-bicuculline. Briefly: Protection of mice against clonic seizures induced by i.v. (+)-bicuculline. To be noted: for ED50: Mus musculus, ip, single dose, protection against bicuculline-induced clonic seizures.
Data set [4] has as its target T1, GABA-T (Mus musculus, UniProt P61922).
T1 construct: The brains are removed from the dead mice and are divided into two portions by sagittal section; from tissue; host or cells: brain of male albino CD1 mice dosed i.p. for four days
In words: GABA-T activity in brain of mice after daily i.p. dosing for four days. Particulars: ip, four consecutive days, 24 hours after the last dose; for inhibition at 5 mg/kg: daily dose 5 mg/kg i.p.; for inhibition at 10 mg/kg: daily dose 10 mg/kg i.p. Here is the method:
as §1, §2

Read-outs that look alike come from different tables or passages of the source.

T1 sequence (P61922 29-500): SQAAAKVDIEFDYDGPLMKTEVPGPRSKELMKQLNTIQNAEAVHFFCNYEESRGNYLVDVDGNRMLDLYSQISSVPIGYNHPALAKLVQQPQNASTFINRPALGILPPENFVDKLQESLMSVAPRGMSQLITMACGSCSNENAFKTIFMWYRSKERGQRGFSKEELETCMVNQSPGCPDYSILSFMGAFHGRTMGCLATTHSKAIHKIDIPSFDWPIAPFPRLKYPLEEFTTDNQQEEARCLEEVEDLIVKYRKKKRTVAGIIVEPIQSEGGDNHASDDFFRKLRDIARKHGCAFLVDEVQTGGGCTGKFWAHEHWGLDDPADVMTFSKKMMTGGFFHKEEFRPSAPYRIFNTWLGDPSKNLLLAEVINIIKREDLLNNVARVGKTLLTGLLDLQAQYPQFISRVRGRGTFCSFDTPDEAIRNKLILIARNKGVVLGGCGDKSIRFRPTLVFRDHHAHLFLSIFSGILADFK

Turning to `NCCC(N)C(F)F` (stereo not drawn) [DFDB, 1,1-difluoro-2,4-diaminobutane], the “Morality (After treatment)” value in data set [1] (daily dose 2 mg/kg i.p.) and in data set [1] (daily dose 5 mg/kg i.p.) was 0/5 each time. In addition, the “Weight Loss” value in data set [1] (daily dose 2 mg/kg i.p.) and in data set [1] (daily dose 5 mg/kg i.p.) was 0% in each case. The figures for the mortality at 288 h in data set [1] (daily dose 10 mg/kg i.p.) and in data set [1] (daily dose 20 mg/kg i.p.) were 60% and 100%, respectively. The figures for the GABA content elevation in data set [2] (daily dose 5 mg/kg i.p.), in data set [2] (daily dose 10 mg/kg i.p.) and in data set [2] (daily dose 20 mg/kg i.p.) were 200%, 275% and 465%, respectively. The same compound gave an ED50 in data set [3] of 4.2 mg/kg. For the same compound, the “% of Animals Blocked” value in data set [3] (single dose 3 mg/kg i.p.) amounted to 20%; in data set [3] (single dose 4 mg/kg i.p.), 45%; in data set [3] (single dose 6 mg/kg i.p.), 90%; in data set [3] (single dose 8 mg/kg i.p.) it was 95%. Also, in data set [4] (daily dose 2 mg/kg i.p.), the inhibition at 2 mg/kg is 69.5%. In addition, testing at 5 mg/kg in data set [4] gave an inhibition of 71.4%. In data set [4], this compound displayed an inhibition at 10 mg/kg of 81%. The same compound showed an inhibition at 20 mg/kg in data set [4] (daily dose 20 mg/kg i.p.) of 96.7%.
With `NCCC(N)CF` (stereo not drawn) [MFDB, 1-fluoro-2,4-diaminobutane], the “Morality (After treatment)” value in data set [1] (daily dose 5 mg/kg i.p.) and in data set [1] (daily dose 10 mg/kg i.p.) was 0/5 throughout. Besides, the “Weight Loss” value in data set [1] (daily dose 5 mg/kg i.p.) and in data set [1] (daily dose 10 mg/kg i.p.) was 0% each time. The results for the mortality at 288 h in data set [1] (daily dose 25 mg/kg i.p.) and in data set [1] (daily dose 50 mg/kg i.p.) were 40% and 60%, respectively. Besides, the GABA content elevation was found to be 190% in data set [2] (daily dose 5 mg/kg i.p.), 200% in data set [2] (daily dose 10 mg/kg i.p.), 470% in data set [2] (daily dose 25 mg/kg i.p.) and 465% in data set [2] (daily dose 50 mg/kg i.p.). Moreover, the ED50 in data set [3] came to 65 mg/kg. In addition, the “% of Animals Blocked” value in data set [3] (single dose 42 mg/kg i.p.) is given as 20%; in data set [3] (single dose 51 mg/kg i.p.), 40%; in data set [3] (single dose 59 mg/kg i.p.), 50%; in data set [3] (single dose 68 mg/kg i.p.), 55%; in data set [3] (single dose 84 mg/kg i.p.), 60%; in data set [3] (single dose 100 mg/kg i.p.), 60%. Moreover, the inhibition at 5 mg/kg in data set [4] was found to be 39.7%. The inhibition at 10 mg/kg in data set [4] is 49.8%. The same compound had an inhibition at 25 mg/kg in data set [4] (daily dose 25 mg/kg i.p.) of 74%. In data set [4] (daily dose 50 mg/kg i.p.), this compound came in with an inhibition at 50 mg/kg of 79%.

The record behind these values is patent EP0046712A1, “Fluorinated diaminobutane derivatives” (MERRELL TORAUDE ET COMPAGNIE, priority 1980, dated 1982).
